# Experiment: method code SF-HPLC, from Marrel, C.; Boss, G.; Van, H.; Testa, B.; Cooper, D.; Jenner, P.; Marsden, C. (1985). L-DOPA esters as potential prodrugs. Part. I. Physicochemical properties. Eur J Med Chem, 20(5)459-465.
# Details: not given
row,Compound,logP
1,CC(O)COC(=O)[C@@H](N)Cc1ccc(O)c(O)c1 (stereo not given in full),-0.49
2,N[C@@H](Cc1ccc(O)c(O)c1)C(=O)OCC1CCCCO1 (stereo not given in full),0.47
3,COCC(C)OC(=O)[C@@H](N)Cc1ccc(O)c(O)c1 (stereo not given in full),0.08

# Same assay, conditions: pH 7.4
row,Compound,logD
1,CCOC(=O)[C@@H](N)Cc1ccc(O)c(O)c1,0.01
2,COc1ccc(CCOC(=O)[C@@H](N)Cc2ccc(O)c(O)c2)cc1,1.5
3,CCCOC(=O)[C@@H](N)Cc1ccc(O)c(O)c1,0.55
4,N[C@@H](Cc1ccc(O)c(O)c1)C(=O)OCCc1ccccc1,1.57
5,N[C@@H](Cc1ccc(O)c(O)c1)C(=O)OCCOc1ccccc1,1.35
6,N[C@@H](Cc1ccc(O)c(O)c1)C(=O)OC1CCCCC1,1.53
7,N[C@@H](Cc1ccc(O)c(O)c1)C(=O)OCCc1ccc(Cl)cc1,2.12
